Assays:
CYP1A2 = target: T1, CYP1A2 (Homo sapiens, UniProt P05177); assay: CYP inhibition cocktail assay in pHLM, CYP1A2 (phenacetin)
T1 sequence (P05177 1-516): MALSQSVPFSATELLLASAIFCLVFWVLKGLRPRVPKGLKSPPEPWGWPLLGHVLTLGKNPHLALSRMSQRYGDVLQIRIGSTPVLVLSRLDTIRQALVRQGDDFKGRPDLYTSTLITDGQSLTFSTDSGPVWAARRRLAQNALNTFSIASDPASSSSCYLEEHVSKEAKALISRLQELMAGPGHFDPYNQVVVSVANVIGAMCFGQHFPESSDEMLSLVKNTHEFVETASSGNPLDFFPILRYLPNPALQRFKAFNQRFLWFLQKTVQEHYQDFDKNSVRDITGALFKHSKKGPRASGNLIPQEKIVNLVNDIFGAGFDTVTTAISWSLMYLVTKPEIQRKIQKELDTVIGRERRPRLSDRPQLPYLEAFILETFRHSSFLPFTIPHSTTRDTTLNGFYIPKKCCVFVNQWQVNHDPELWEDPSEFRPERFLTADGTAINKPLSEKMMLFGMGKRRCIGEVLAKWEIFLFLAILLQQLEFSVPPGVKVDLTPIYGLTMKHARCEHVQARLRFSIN
Experimental: (§1) A modified dual-cocktail based method (Dinger et al. [2014b]) was used. Substrate cocktail A consisted of 8.9 µM dextromethorphan (CYP2D6), 86 µM testosterone (CYP3A4), 3.5 µM diclofenac (CYP2C9), and 12 µM phenacetin (CYP1A2). Substrate cocktail B included 30 µM bupropion (CYP2B6), 2 µM amodiaquine (CYP2C8) and 21 µM omeprazole (CYP2C19). Substrate concentrations were near their respective Michaelis–Menten constant (Km) values (Dinger et al. [2014a]) and all concentrations are final. Enzyme inhibition was investigated using a positive control, a test group, a control group, an interference group, and a negative control. In the test group, specific inhibitors were replaced by MDPM (20 µM). Instead of inhibitors, phosphate buffer was used in the control group. Enzymes were replaced with phosphate buffer in the negative control group. The interference group was incubated like the control group, but the reaction was stopped with 20 µM MDPM in acetonitrile, also containing 2.5 µM trimipramine-d3. All groups were incubated with a NADPH-regenerating system, consisting of 5 mM isocitrate, 2 U/mL isocitrate dehydrogenase, 5 mM Mg^2+, and 1.2 mM NADP^+. Further, substrate cocktail A or B, 90 mM phosphate buffer (pH 7.4), and 200 U/mL superoxide dismutase were added to each group. […] All groups were preincubated for 10 min at 37 °C. […] Enzyme inhibition was evaluated by metabolite formation. […]

CYP3A4 = CYP3A4 (Homo sapiens, UniProt P08684); assay: CYP inhibition cocktail assay in pHLM, CYP3A4 (testosterone)
Chain of CYP3A4 (P08684 whole entry): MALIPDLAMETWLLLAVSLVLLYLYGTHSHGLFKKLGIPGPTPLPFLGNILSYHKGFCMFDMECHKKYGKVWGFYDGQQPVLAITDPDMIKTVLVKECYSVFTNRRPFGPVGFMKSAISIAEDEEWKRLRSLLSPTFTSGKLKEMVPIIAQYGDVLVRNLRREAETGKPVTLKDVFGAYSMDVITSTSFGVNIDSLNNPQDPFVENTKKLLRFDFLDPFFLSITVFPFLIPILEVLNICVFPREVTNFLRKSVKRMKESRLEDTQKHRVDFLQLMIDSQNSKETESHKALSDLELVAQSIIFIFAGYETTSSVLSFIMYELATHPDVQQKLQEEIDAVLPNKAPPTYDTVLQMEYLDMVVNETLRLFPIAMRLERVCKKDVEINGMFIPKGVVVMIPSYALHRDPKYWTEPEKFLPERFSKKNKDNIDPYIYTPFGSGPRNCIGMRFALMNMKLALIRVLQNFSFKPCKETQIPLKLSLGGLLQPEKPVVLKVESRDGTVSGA
Experimental: as §1

[1] = In vitro plasma protein binding (ultrafiltration, Centrifree); assay type: in vitro ADME; details: 30 min at 37 °C, triplicate
Experimental: PPB of MDPM was investigated based on published procedures with minor adjustments (Gampfer et al. [2020]), (Mardal et al. [2016]). A volume of 450 µL fresh human blood plasma was spiked with 50 µL of a 5 µM methanolic solution of MDPM. The mixture was incubated for 30 min at 37 °C. Plasma aliquots of 100 µL and 400 µL were transferred to a new reaction tube (global approach, GA) and onto two-chambered Centrifree devices from Merck (Darmstadt, Germany), respectively. The Centrifree devices were centrifuged for 40 min and 1600×g to obtain 100 µL of ultrafiltrate (UF). UF and GA were precipitated using 50 µL acetonitrile (− 20 °C). The mixture was vortexed, cooled for 30 min at − 20 °C, and centrifuged for 3 min at 18,407×g. […] Experiments were done in triplicate. Fraction unbound (fu) and PPB was determined by comparing the area ratios of MDPM and trimipramine-d3 in the UF and GA using the following equations:1 fu=peak area ratioMDPMUF/ISUF/peak area ratioMDPMGA/ISGA 2 PPB[%]=1-fu∗100

CYP2B6 = target: T2, CYP2B6 (Homo sapiens, UniProt P20813); assay: CYP inhibition cocktail assay in pHLM, CYP2B6 (bupropion); details: inhibitor 20 µM
T2 sequence (P20813 1-491): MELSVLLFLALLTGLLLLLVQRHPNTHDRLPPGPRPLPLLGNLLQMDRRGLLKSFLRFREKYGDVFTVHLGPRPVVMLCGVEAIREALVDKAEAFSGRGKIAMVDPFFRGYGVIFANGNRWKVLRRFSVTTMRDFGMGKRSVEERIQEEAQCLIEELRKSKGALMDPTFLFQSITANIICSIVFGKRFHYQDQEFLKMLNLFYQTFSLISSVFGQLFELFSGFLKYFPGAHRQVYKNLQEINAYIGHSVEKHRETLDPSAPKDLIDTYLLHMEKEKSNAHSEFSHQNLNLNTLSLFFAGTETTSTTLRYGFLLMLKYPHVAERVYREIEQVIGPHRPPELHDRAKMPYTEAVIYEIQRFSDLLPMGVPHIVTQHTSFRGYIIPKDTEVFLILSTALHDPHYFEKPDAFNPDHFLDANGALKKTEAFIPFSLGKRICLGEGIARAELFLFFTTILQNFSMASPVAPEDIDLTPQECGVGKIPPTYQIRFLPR
Experimental: A modified dual-cocktail based method (Dinger et al. [2014b]) was used. Substrate cocktail A consisted of 8.9 µM dextromethorphan (CYP2D6), 86 µM testosterone (CYP3A4), 3.5 µM diclofenac (CYP2C9), and 12 µM phenacetin (CYP1A2). Substrate cocktail B included 30 µM bupropion (CYP2B6), 2 µM amodiaquine (CYP2C8) and 21 µM omeprazole (CYP2C19). Substrate concentrations were near their respective Michaelis–Menten constant (Km) values (Dinger et al. [2014a]) and all concentrations are final. Enzyme inhibition was investigated using a positive control, a test group, a control group, an interference group, and a negative control. In the test group, specific inhibitors were replaced by MDPM (20 µM). Instead of inhibitors, phosphate buffer was used in the control group. Enzymes were replaced with phosphate buffer in the negative control group. The interference group was incubated like the control group, but the reaction was stopped with 20 µM MDPM in acetonitrile, also containing 2.5 µM trimipramine-d3. All groups were incubated with a NADPH-regenerating system, consisting of 5 mM isocitrate, 2 U/mL isocitrate dehydrogenase, 5 mM Mg^2+, and 1.2 mM NADP^+. Further, substrate cocktail A or B, 90 mM phosphate buffer (pH 7.4), and 200 U/mL superoxide dismutase were added to each group. […] All groups were preincubated for 10 min at 37 °C. Then, pHLM (0.4 mg microsomal protein/mL) was added to each group except the negative control. Incubations were done for 15 min at 37 °C. Therefore, 50 µL of acetonitrile (− 20 °C) containing 2.5 µM trimipramine-d3 as internal standard was added. Incubations were done in triplicates and organic solvent in the incubation mixture was below 1% (Chauret et al. [1998]). Afterwards the samples were vortexed and centrifuged for 2 min at 18,407×g. 70 µL of the supernatant were transferred to autosampler vials and 10 µL were injected onto the LC-HRMS/MS system. Enzyme inhibition was evaluated by metabolite formation. […] The following settings were used: unpaired; one-tailed; significance level, 0.05; confidence intervals, 99%.

SMILES: CC1NCCOC1c1ccc2c(c1)OCO2 (centres unmarked) [MDPM, 2-(1,3-benzodioxol-5-yl)-3-methylmorpholine]
- inhibition at 15 min, 20 µM (CYP1A2; human, pooled human liver microsomes (pHLM), pH 7.4, probe phenacetin (12 µM)): 39%
- CYP1A2 metabolite formation (CYP1A2; inhibitor 20 µM, phenacetin 12 µM, pHLM 0.4 mg/mL, 15 min, control without inhibitor = 100%): 61%
- inhibition at 15 min, 20 µM (CYP3A4; human, pH 7.4): 28%
- CYP3A4 metabolite formation (CYP3A4; inhibitor 20 µM, testosterone 86 µM, pHLM 0.4 mg/mL, 15 min, control without inhibitor = 100%): 72%
- fraction unbound at 30 min, 0.5 µM ([1]; fresh human blood plasma, read-out: plasma protein binding (PPB) (converted)): 0.68
- plasma protein binding (PPB) ([1]; human plasma): 32%
- CYP2B6 metabolite formation (CYP2B6; bupropion 30 µM, pHLM 0.4 mg/mL, 15 min, control without inhibitor = 100%): 113%
- inhibition of CYP2B6 (CYP2B6; bupropion, pHLM, t-test versus control): no significant inhibition

Reference: article PMC11968506, “Toxicokinetics and analytical toxicology of the phenmetrazine-derived new psychoactive substance 3,4-methylenedioxyphenmetrazine studied by means of in vitro systems” (Archives of Toxicology, 2025)
